Assay results reported in patent US8715677B2, “Immunological uses of immunomodulatory compounds for vaccine and anti-infectious disease therapy” (Celgene Corporation, priority 2005, dated 2014).

Key:
Assay type in all cases: cell-based
regulatory T cells = test: Treg suppression of anti-CD3 mAb activated CD4+CD25- cell proliferation; details: for suppressive function of Treg on anti-CD3 mAb activated CD4+CD25- cells: pre-incubation of Treg with compound
Experimental: An assay in which the ability of isolated Treg to suppress anti-CD3 mAb activated CD4+CD25− cells was performed.
Regulatory T cells were isolated by the Dynal T regulatory cell isolation kit, and treated for 24 hours with varying concentrations of an immunomodulatory compound (Actimid™ or lenalidomide) or DMSO. The cells were washed and incubated at a 1:2 ratio with CD25^−CD4^+ cells, which were also isolated by the Dynal T regulatory cell isolation kit. Results were expressed as the mean % change in proliferation compared to the cpms obtained from DMSO treated CD25^+ cells incubated with CD25^− cells.

Raji cells = test: Direct effects on NHL tumor cells, alone or with anti CD20 antibodies; details: for effect in combination with anti CD20 antibody B1: 10 μM / up to 10 μM
Experimental: Direct effects of IMiDs on NHL tumor cells were tested by treating Raji cells with IMiDs alone, or in combination with anti CD20 antibodies B1 or rituxan. IMiD 1 alone caused up to 40% inhibition of proliferation at 10 μM in Raji cells, which corresponded to G1 arrest.

γδ T cells [1] = test: Apoptosis of γδ T cells (annexin V PE / 7-AAD); details: with or without IPP; FIG. 6
Experimental: Gamma delta T cells were treated with a single dose of 25 μM IPP and weekly with 150 U/ml of IL-2 for 4 weeks and 3 days. Cells were then either left untreated or treated with Actimid™, IPP or Actimid™ and IPP. Apoptosis was assessed by staining of cells with annexin V PE and 7-AAD at various time points and analysis using a FACSCalibur.
Gamma delta T cells were treated with a single dose of 25 μM IPP and weekly with 150 U/ml of IL-2 for 31 days. Cells were then either left untreated or treated with Actimid™, IPP, or Actimid™ and IPP in combination. Apoptosis was assessed by staining of cells with annexin V PE and 7-AAD at the stated time points and analysis using a FACSCalibur. Annexin V PE negative/7-AAD negative cells are designated live, annexin V PE positive/7-AAD negative early apoptotic, annexin V PE positive/7-AAD positive late apoptotic and annexin V PE negative/7-AAD positive dead.

γδ T cells [2] = test: Cytokine production by γδ T cells
Experimental: Purified γδ T cells were stimulated with IPP±IMiDs ([…]) or with the MM cell line RPMI-8226 (±IMiDs ([…])) in 24 well plates and were incubated 8-72 hours. Cell-free supernatants were collected and stored at −70° C. until assayed by ELISA. IFN-γ, TNF-α and IL-2 were measured by ELISA (BD pharmingen). For fresh δγ preps, PBMCs were stimulated with plate bound anti-CD3 (1.25 μg/ml) for 48 hours and the expression of TNF-α, IFNγ, IL-2 and IL-4 were measured by intracellular FACS on cells stained for γδ TCR.
The effects of Actimid™ on IFN-γ, TNF-α, and IL-4 were examined in freshly prepared γδ T cells and γδ T cell lines stimulated with IPP.

γδ T cells [3] = test: IFN-γ production by γδ T cells in co-culture with tumor cells; details: co-culture with RPMI-8226 MM cells, with or without pamidronate; FIG. 8
Experimental: Tumor cells pre-incubated with (FIG. 8B) or without (FIG. 8A) pamidronate were incubated with δγ T cells at different tumor (RPMI-8226 MM) to γδ T cells ratios as indicated in FIG. 8. Some of the cells were further treated by Actimid™. Intracellular IFN-gamma production was measured by flow cytometry.

RPMI-8226 MM cell lines = test: Cytotoxicity of γδ T cells, chromium release assay
Experimental: Gamma delta T cells were treated with a single dose of 25 μM IPP and weekly with 150 U/ml of IL-2 for 3 weeks and 1 day. RPMI-8226 target cells were incubated overnight with 50 μM pamidronate then treated with 3MBq 51Cr. Target, and effector cells were incubated at different ratios and chromium release was assayed after 4 hours. To determine the effects of Actimid™, the compound was either included in the 22 day preincubation before the assay and in the chromium release step, or was included during the chromium release assay.
Gamma delta cells were treated with a single dose of 25 μM IPP and weekly with 150 U/ml of IL-2 for 22 days. RPMI-8226 target cells were incubated overnight with 50 μM pamidronate, then treated with 3 MBq 51 Cr. Target and effector cells were incubated at various ratios with fresh Actimid™ and chromium release assayed after 4 hours. Actimid™ was also added to some wells for the 22 day pretreatment with IL-2 and IPP (FIG. 9A) or just for the 4 hr chromium release assay (FIG. 9B).

[4] = tested on: Rituximab-resistant cell line 2R; test: Rituximab-mediated ADCC by primed PBMC, 51Cr release, 2R cells; details: E:T 40:1
Experimental: (§1) Rituximab-resistant cell lines (RRCL) were generated by chronic exposure of Raji cells to escalating doses of rituximab alone (2R) or along with human complement (4RH). […] To study the effects of lenalidomide-priming of PBMC's against RRCL, peripheral blood mononuclear cells from healthy donors were cultured with either DMSO or lenalidomide (at final concentrations of 10 or 20 μg/ml), with or without IL-2 (20 IU/ml), over a 5-day period at 37° C., 5% CO2. Parentral Raji, and RRCL (2R and 4RH) were labeled with ^51Cr and exposed to either rituximab or trastuzumab (Isotype control at 20 μg/ml) in the presence of an IMiD or control stimulated-PBMCs (Effector:Target ratio of 40:1). ^51Cr release was measured and the percentage of lysis was calculated. Statistical differences were analyzed by chi-square test.

[5] = tested on: Rituximab-resistant cell line 4RH; test: Rituximab-mediated ADCC by primed PBMC, 51Cr release, 4RH cells
Experimental: as §1

Gab2 = Gab2 phosphorylation in anti-CD3/CD28 stimulated Jurkat T cells; details: at about 1 μM, dose-dependent
Source text: The Gab proteins, including Gab1, Gab2 and Gab3 comprise a growing family of phospho-tyrosine regulated scaffolding molecules involved in RTK signal transduction. Phosphorylation of Gab1 in B cells is associated with P13-kinase activity and cell proliferation. While Gab1 is expressed in B cells, only Gab2 is expressed in T cells. Although Gab2 is tyrosine phosphorylated upon TCR activation by ZAP-70, it functions as a negative regulator of TCR signaling via a Shp-2 dependent mechanism. Overexpression of Gab2 in T cells results in the inhibition of IL-2 production (Yamasaki et al., J. Biol. Chem., 2001). The effect of lenalidomide on Gab2 phosphorylation and activation in anti-CD3/CD28 stimulated Jurkat T cells was examined. Lenalidomide inhibited Gab2 phosphorylation dose-dependently (with approximately 50% inhibition at about 1 μM) in a manner that correlated with T cell costimulation and enhancement of IL-2 production.

Foxp3 = Foxp3 expression in CD4+CD25+ cells (intracellular staining); details: CD4+CD25+ cells incubated 24 hours; FIG. 3
Experimental: CD4^+CD25^+ cells were incubated for 24 hours with varying concentrations of DMSO, Actimid™, lenalidomide, or thalidomide and then washed twice with RPMI medium. Cells were stained with CD152-PE, CD4-PERCP, and CD25-APC. Intracellular Foxp3 staining and CD152 staining were carried out after permeabilizing the CD4^+ CD25^+ cells. Results were expressed as percentage of expression of Foxp3 in the CD4^+CD25^+ population or the CD4^+CD25^− population.

[6] = TCR γδ cells within freshly prepared PBMC population

In the case of `Nc1cccc2c1C(=O)N(C1CCC(=O)NC1=O)C2=O` (centres unmarked) [Actimid, 4-(amino)-2-(2,6-dioxo(3-piperidyl))-isoindoline-1,3-dione], the “suppressive function of Treg on anti-CD3 mAb activated CD4+CD25- cells” value (regulatory T cells) is reported as “inhibits the suppressive function”, the “effect in combination with rituxan” value (Raji cells; 10 μM) is reported as “slight additive effect” and the “effect in combination with anti CD20 antibody B1” value (Raji cells) is reported as “small additive effect”. The “apoptosis in γδ T cells” value (γδ T cells [1]) was “protection against apotosis”, the “production of IFN-γ” value (γδ T cells [2]; [6]) was “enhanced” and the “production of TNF-α” value (γδ T cells [2]; [6]) was “enhanced”. The “production of IFN-γ” value (γδ T cells [2]; γδ T cells stimulated with IPP) was “enhanced”, the “production of IL-4” value (γδ T cells [2]; γδ T cells stimulated with IPP) was “not” and the “IFN-γ production by γδ T cells” value (γδ T cells [3]) was “augmented”. The “cytotoxicity of γδ T cells toward RPMI-8226 MM cell lines” value (RPMI-8226 MM cell lines; compound added during the 4 hr chromium release assay only, FIG. 9B) was “enhanced” and the “cytotoxicity of γδ T cells toward RPMI-8226 MM cell lines” value (RPMI-8226 MM cell lines; compound added during the 22 day pretreatment, FIG. 9A) was “enhanced”.

In the case of `Nc1cccc2c1CN(C1CCC(=O)NC1=O)C2=O` (centres unmarked) [IMiD], the “rituximab-mediated ADCC, mean % lysis” value ([4]; PBMC exposed to IMiD for 5 days) is reported as 26.9+/−1.18%, the “rituximab-mediated ADCC, mean % lysis” value ([4]; PBMC exposed to IMiD+IL-2 for 5 days) is reported as 38.4+/−4.14% and the “mean % of lysis by ADCC” value ([5]; IMiD exposed PBMC) is reported as 26.5+/−1.83%. The “mean % of lysis by ADCC” value ([5]; combination IMiD/IL-2 exposed PBMC) was 38.4+/−4.1%.

In the case of `Nc1cccc2c1CN(C1CCC(=O)NC1=O)C2=O` (centres unmarked) [lenalidomide, 3-(4-amino-1-oxo-1,3-dihydro-isoindol-2-yl)-piperidine-2,6-dione], the “suppressive function of Treg on anti-CD3 mAb activated CD4+CD25- cells” value (regulatory T cells) is reported as “inhibits the suppressive function”, the “effect in combination with anti CD20 antibody B1” value (Raji cells) is reported as “minimal” and the “inhibition of Gab2 phosphorylation” value (Gab2) is reported as “approximately 50%”.

In the case of `O=C1CCC(N2C(=O)c3ccccc3C2=O)C(=O)N1` (centres unmarked) [thalidomide, reference compound], the “proliferation of CD25- cells in the presence of CD25+CD4+ cells, compared to DMSO treated CD4+CD25+ cells” value (regulatory T cells; Treg treated 24 hours, washed, 1:2 ratio with CD25-CD4+ cells, FIG. 2) is reported as “little effect” and the Foxp3 expression (Foxp3) is reported as “little effects”.
